Experimental data from paper PMC6272684, “Synthesis, Antiproliferative and Antifungal Activities of 1,2,3-Triazole-Substituted Carnosic Acid and Carnosol Derivatives” (Molecules, 2015).

Key:
[1] = system: lung cancer (SK-MES-1) cells; assay: Antiproliferative assay (MTT reduction, 3 days); format: cell-based, human; conditions: >100 µM considered inactive, read-out: IC50 ± SD, SK-MES-1
Description: (§1) The antiproliferative activity towards the following human cell lines was determined: normal lung fibroblasts (MRC-5), gastric epithelial adenocarcinoma (AGS), lung cancer (SK-MES-1) and bladder carcinoma (J82) cells.
(§2) All human cell lines used in this work were purchased from the American Type Culture Collection (ATCC, Manasas, VA, USA). […] All media were supplemented with 10% heat-inactivated FBS, 100 IU∙mL^−1 penicillin and 100 µg∙mL^−1 streptomycin. Cells were grown in a humidified incubator with 5% CO2 in air at 37 °C. For the antiproliferative assay, cells were plated at a density of 5 × 10^4 cells∙mL^−1. Cells were seeded in 96-well plates (100 µL∙well^−1). One day after seeding, cells were treated with medium containing the compounds at concentrations ranging from 0 up to 100 µM during 3 days. The compounds were dissolved in DMSO (1% final concentration) and complete medium. Untreated cells (medium containing 1% DMSO) were used as 100% viability controls. […] Each concentration was tested in sextuplicate and experiments were repeated 2 times. Cell viability was determined by means of the MTT reduction assay at the end of the incubation with the products. […] The software used was OriginPro 8.1 [30].

[2] = system: normal lung fibroblasts (MRC-5); assay: Antiproliferative assay (MTT reduction, 3 days); format: cell-based, human; conditions: MRC-5 normal fibroblasts, >100 µM considered inactive, read-out: IC50 ± SD, MRC-5
Description: as §1, §2

[3] = system: gastric epithelial adenocarcinoma (AGS) cells; assay: Antiproliferative assay (MTT reduction, 3 days); format: cell-based, human; conditions: >100 µM considered inactive, read-out: IC50 ± SD, AGS
[4] = system: bladder carcinoma (J82) cells; assay: Antiproliferative assay (MTT reduction, 3 days); format: cell-based, human; conditions: J82 cells, 3 days, MTT; >100 µM considered inactive; read-out: IC50 ± SD, J82
C. albicans ATCC 10231 = assay: Antifungal broth microdilution (CLSI M27-A3), growth inhibition; format: cell-based, Candida albicans
Method in brief: (§3)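 Yeast inocula (1–5 × 10^3 CFU/mL) were tested by CLSI M27-A3 broth microdilution in RPMI-1640 at 250–3.9 μg∙mL^−1 (DMSO ≤1%) for 48 h at 30 °C in the dark. Growth was read at OD405, and % inhibition was calculated against growth and sterility controls in triplicate. MIC100 is total inhibition; MIC50 is 50% inhibition.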

C. neoformans ATCC 32264 = assay: as above; format: cell-based, Cryptococcus neoformans
Method in brief: as §3

## CC(C)c1cc2c3c(c1OC(=O)CCCc1cn(CSc4ccccc4)nn1)OC(=O)C31CCCC(C)(C)C1CC2 (centres unmarked) [Compound 2, 12-O-(4-(((1-phenylthio)methyl)-1H-1,2,3-triazol-4-yl)-butanoyloxy)-11,20-epoxyabieta-8,11,13-trien-20-one]
[1]
  IC50: 76 ± 5.1 µM
[2]
  IC50: 46.9 ± 3.4 µM
[3]
  IC50: 41 ± 2.1 µM
[4]
  IC50: 80.1 ± 4.3 µM
C. albicans ATCC 10231; 3.9 μg∙mL^−1, 48 h
  Inhibition percentage against C. albicans ATCC 10231: 1.5 ± 0.1%
C. albicans ATCC 10231; 7.8 μg∙mL^−1, 48 h
  Inhibition percentage against C. albicans ATCC 10231: 1.9 ± 0.5%
C. albicans ATCC 10231; 15.6 μg∙mL^−1, 48 h
  Inhibition percentage against C. albicans ATCC 10231: 5.2 ± 0.6%
C. albicans ATCC 10231; 62.5 μg∙mL^−1, 48 h
  Inhibition percentage against C. albicans ATCC 10231: 15.7 ± 1.8%
C. albicans ATCC 10231; 125 μg∙mL^−1, 48 h
  Inhibition percentage against C. albicans ATCC 10231: 27.9 ± 1.8%
C. albicans ATCC 10231; 250 μg∙mL^−1, 48 h
  Inhibition percentage against C. albicans ATCC 10231: 50.7 ± 0.3%
C. albicans ATCC 10231; 31. μg∙mL^−1, 48 h
  Inhibition percentage against C. albicans ATCC 10231: 8.9 ± 1.8%
C. albicans ATCC 10231; C. albicans ATCC 10231
  MIC50 (minimum concentration to inhibit 50% of fungal growth), C. albicans: 250 µg/mL
C. neoformans ATCC 32264; 3.9 μg∙mL^−1, 48 h
  Inhibition percentage against C. neoformans ATCC 32264: 1.5 ± 0.1%
C. neoformans ATCC 32264; 7.8 μg∙mL^−1, 48 h
  Inhibition percentage against C. neoformans ATCC 32264: 1.9 ± 0.5%
C. neoformans ATCC 32264; 15.6 μg∙mL^−1, 48 h
  Inhibition percentage against C. neoformans ATCC 32264: 10.3 ± 1.0%
C. neoformans ATCC 32264; 31.2 μg∙mL^−1, 48 h
  Inhibition percentage against C. neoformans ATCC 32264: 11.8 ± 0.3%
C. neoformans ATCC 32264; 62.5 μg∙mL^−1, 48 h
  Inhibition percentage against C. neoformans ATCC 32264: 20.7 ± 0.6%
C. neoformans ATCC 32264; 125 μg∙mL^−1, 48 h
  Inhibition percentage against C. neoformans ATCC 32264: 22.1 ± 1.5%
C. neoformans ATCC 32264; 250 μg∙mL^−1, 48 h
  Inhibition percentage against C. neoformans ATCC 32264: 74.8 ± 2.8%
C. neoformans ATCC 32264; C. neoformans ATCC 32264
  MIC50 (minimum concentration to inhibit 50% of fungal growth), C. neoformans: 250 µg/mL
